Data as given in US12678509B2, “Inhibitor of apoptosis (IAP) protein antagonists” (Sanford Burnham Prebys Medical Discovery Institute, priority 2019, dated 2026).
pIC50: −log10 of the molar value.

Experiments:
Assay in all cases: Cell viability (CellTiter-Glo), 6-day compound treatment
Assay type in all cases: cell-based, Human
[1] = system: MDA-MB-468
Description: (§1) The compound 18a was tested in 16 different cell lines. For 6-day compound treatment 1700 cells per well were plated in a 384-well plate (Corning #781098) and incubated overnight at 37° C./5% CO2. The following day, compounds in 10-fold dilutions were added to the plates and the plates were incubated for 6 days. Afterwards, 20 μL CellTiter-Glo reagent (Promega, #G7570) was added to each well outside of the incubator and the plates were read for luminescence on a Spark® multimode microplate reader (Tecan). Data was fit in GraphPad Prism 8 to a nonlinear regression curve to determine the IC50 of the compounds.

[2] = system: H69AR
Description: as §1

[3] = system: SHP-77
Description: as §1

[4] = system: MALME 3M
Description: as §1

[5] = system: HFF; settings: Homo sapiens, 144 h, read-out: IC50 6 d
Description: as §1

[6] = system: NCI-H510A
Description: as §1

[7] = Homo sapiens, 144 h, read-out: IC50 6 d

CN[C@@H](C)C(=O)N[C@H]1CCS[C@H]2CC(C)(C)[C@@H](C(=O)N[C@H]3c4ccccc4C[C@H]3OCC#CC#CCO[C@@H]3Cc4ccccc4[C@@H]3NC(=O)[C@H]3N4C(=O)[C@@H](NC(=O)[C@H](C)NC)CCS[C@H]4CC3(C)C)N2C1=O [Compound 18a, (2S)-1-{[(4S,7S,9aS)-74{(1S,2R)-2-[(6-{[(1S,2R)-1-({[(4S,7S,9aS)-8,8-Dimethyl-4-{[(2S)-2-(methylammonio)propanoyl]amino}-5-oxooctahydropyrrolo[2,1-b][1,3]thiazepin-7-yl]carbonyl}amino)-2,3-dihydro-1H-inden-2-yl]oxy}hexa-2,4-diyn-1-yl)oxy]-2,3-dihydro-1H-inden-1-yl}carbamoyl)-8,8-dimethyl-5-oxooctahydropyrrolo[2,1-b][1,3]thiazepinyl]amino}-N-methyl-1-oxopropan-2-ammonium dichloride] was tested, and the pIC50 ([1]; Homo sapiens, MDA-MB-468, 144 h, read-out: IC50 6 d) was 6.00 to 7.00, the “Cell viability at max. concentration” value ([1]; MDA-MB-468, 6 d) was “I (I<10%)” and the “Cell viability at max. concentration” value ([2]; 6 d) was “I (I<10%)”. The pIC50 [2, 7] was 5.00 to 6.00, the pIC50 ([3]; Homo sapiens, SHP77, 144 h, read-out: IC50 6 d) was over 4.00 and the “Cell viability at max. concentration” value ([3]; SHP-77, 6 d) was “IV (IV<100%)”. For the same molecule, the pIC50 ([4]; Homo sapiens, Malme-3M, 144 h, read-out: IC50 6 d) was 7.00 to 8.00, the “Cell viability at max. concentration” value ([4]; MALME 3M, 6 d) was “I (I<10%)” and the pIC50 [5] was over 4.00. The “Cell viability at max. concentration” value ([6]; 6 d) was “IV (IV<100%)” and the pIC50 [6, 7] was over 4.00.
